The values below come from PubChem BioAssay AID2060602 (Molecular Pharmacology Branch, DTP, NCI, 2025).

“And” between values parts separate entries of the source, which are not always exact repeats. Equal entries are not always repeated.

The experiment concerns 648629-189-R-J1-PDC complex spheroids viability. Nature of the experiment: Anticancer human tumor 648629-189-R-J1-PDC patient-derived bladder carcinoma cell line growth inhibition [CLK]. The settings on record: for viability, T/C: stronger effect = lower value. The source says:
A high-throughput screen of multi-cell type tumor spheroids was designed to identify active combinations of […] and targeted small molecules. Complex spheroids include a stromal component modeled by human endothelial cells (HUVEC) and fibroblasts modeled by human mesenchymal stem cells (MSCs). The concentration ranges selected for each drug and investigational agent were based upon clinically achievable concentrations if the clinical Cmax of the agent was known.
Compounds. The drugs and investigational agents: cirtuvivint (SM08502; NSC835563), CC-671 (NSC850746), vemurafenib (NSC761431), tapotoclax (NSC804041), sotorasib (NSC818433), adagrasib (NSC831453), MRTX-1133 (NSC836407), BAY2416964 (NSC825713), copanlisib (NSC816437), inavolisib (NSC800729), abemaciclib (NSC768073), osimertinib (NSC779217), entinostat (NSC756642), eltanexor (KPT-8602, NSC794443), venetoclax (NSC766270), ceralasertib (NSC777638), bortezomib (NSC756655), olaparib (NSC753686), talazoparib (NSC767125), alisertib (NSC759677), peposertib (NSC802822), gemcitabine (NSC613327), 5-fluorouracil (NSC19893), SN-38 (NSC673596), oxaliplatin (NSC266046), paclitaxel (NSC125973), and doxorubicin (NSC123127), were obtained from the National Cancer Institute (NCI) Developmental Therapeutics Program Chemical Repository. The FDA-approved anticancer drug set is available from the Developmental Therapeutics Program at https://dtp.cancer.gov/organization/dscb/obtaining/available plates.htm. […] The stock solutions were prepared in dimethyl sulfoxide (DMSO, Sigma-Aldrich, St. Louis, MO, cat. D2650), except for the platinum complexes which were prepared in saline (Quality Biological, Gaithersburg, MD, cat. 114-055-101), at 800-fold the tested concentration and stored at -70 degrees C prior to their use. All drugs and investigational agents were tested over a range starting from a high concentration at or near the clinical Cmax and decreasing in half-log increments. If the clinical Cmax for an agent had not been determined, the highest concentration tested was 10 microM.
Cell Culture. All cells were maintained in an incubator at 37 degrees C and 5% CO2 with 95% humidity. The PDC lines were cultured according to standard operating procedures established by the NCI PDMR. Briefly, all PDCs were thawed and cultured in Matrigel-coated flasks prepared with a working solution of 1X Ham's F-12 nutrient mix, without supplementation (Invitrogen, Waltham, MA, cat. 11765054), 100 U/mL penicillin-streptomycin (Invitrogen, cat. 15140122), and 2.5% Matrigel (Corning Inc., Corning, NY, cat. 354248) for the first three passages. The 947758-054-R-J2-PDC line was cultured in 6B/Colon 1A media, which includes advanced DMEM/F-12 (Thermo Fisher Scientific, cat. 12634028), 10 mM HEPES (Thermo Fisher Scientific, cat. 15630080), 1X GlutaMAX supplement (Thermo Fisher Scientific, cat. 35050061), 0.1 mg/mL primocin (InvivoGen, cat. ant-pm-2), 10% defined fetal bovine serum, heat inactivated (HyClone Laboratories Inc., cat. SH30070.03HI), 1.25 mM N-Acetyl-L-cysteine (Sigma-Aldrich, cat. A9165), 10 mM nicotinamide (Sigma-Aldrich, cat. N0636), 1X B-27 supplement (Thermo Fisher Scientific, cat. 17504044), 1X N-2 supplement (Thermo Fisher Scientific, cat. 17502048), and 10 microM Y-27632 dihydrochloride (Tocris Bioscience, cat. 1254). The 876862-298-R-J1-PDC was cultured in 6E media, which includes all 6B/Colon 1A media components plus 50% L-WRN conditioned media (ATCC, cat. CRL-3276), 50 ng/mL recombinant human EGF recombinant protein (hEGF; Thermo Fisher Scientific, cat. PHG0311), 10 ng/mL recombinant human fibroblast growth factor 10 (hGFG-10; PeproTech, cat. 100-26), 1 ng/mL recombinant human fibroblast growth factor 2 (hFGF-2; PeproTech, cat. 100-18B), and 1 µM prostaglandin E2 (PGE2; Tocris, cat. 2296). The 227483-062-R1-J1-PDC line was cultured in Panc media, containing all 6E components except hFGF-2, with the addition of 500 nM SB-431542 (Selleckchem, cat. S1067) and 10 nM gastrin (Tocris, cat. 3006). […]
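Throughout, for viability, T/C: drug exposure lasted seven days before viability readout; 100% = DMSO vehicle control wells.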

As usually defined, the IC50 is the concentration that inhibits the measured activity by half. By viability, T/C is commonly meant the ratio of treated to control. With `C=CC(=O)Nc1cc(Nc2nccc(-c3cn(C)c4ccccc34)n2)c(OC)cc1N(C)CCN(C)C` + CN1CCN(c2cc(C(=O)Nc3cc4cc(-c5cnn(C)c5)ccc4cn3)ccn2)CC1, the IC50 (curve of first compound, second compound 0.0316 µM) was more than 0.3 µM; the IC50 (curve of first compound, second compound 0.1 µM) was more than 0.3 µM; the IC50 (curve of first compound, second compound 0.316 µM) is less than 0.000949 µM; the IC50 (curve of first compound, second compound 1 µM) is less than 0.000949 µM; the IC50 (curve of first compound, second compound 3.16 µM) was less than 0.000949 µM; the half-inhibitory concentration (IC50) (curve of first compound, second compound 10 µM) is less than 0.000949 µM. Further, the viability, T/C by setting is: (second compound 0.0316 µM, first compound 0.000949 µM) 104%; (second compound 0.0316 µM, first compound 0.003 µM) 109%; (second compound 0.0316 µM, first compound 0.00949 µM) 112%; (second compound 0.0316 µM, first compound 0.03 µM) 115%; (second compound 0.0316 µM, first compound 0.0949 µM) 110%; (second compound 0.0316 µM, first compound 0.3 µM) 91.6%. Besides, the viability, T/C was 104% (second compound 0.1 µM, first compound 0.000949 µM); 117% (second compound 0.1 µM, first compound 0.003 µM); 103% (second compound 0.1 µM, first compound 0.00949 µM); 103% (second compound 0.1 µM, first compound 0.03 µM); 99.1% (second compound 0.1 µM, first compound 0.0949 µM); 93% (second compound 0.1 µM, first compound 0.3 µM). Also, the viability, T/C was 31.4% (second compound 0.316 µM, first compound 0.000949 µM); 42.5% (second compound 0.316 µM, first compound 0.003 µM); 40.7% (second compound 0.316 µM, first compound 0.00949 µM); 35.6% (second compound 0.316 µM, first compound 0.03 µM); 33.8% (second compound 0.316 µM, first compound 0.0949 µM); 23.6% (second compound 0.316 µM, first compound 0.3 µM). Besides, the viability, T/C was 0.28% (second compound 1 µM, first compound 0.000949 µM); 0.35% (second compound 1 µM, first compound 0.003 µM); 1.06% (second compound 1 µM, first compound 0.00949 µM); 0.49% (second compound 1 µM, first compound 0.03 µM); 0.24% (second compound 1 µM, first compound 0.0949 µM); 0.19% (second compound 1 µM, first compound 0.3 µM). Moreover, the viability, T/C was 0.13% (second compound 3.16 µM, first compound 0.000949 µM); 0.19% (second compound 3.16 µM, first compound 0.003 µM); 0.15% (second compound 3.16 µM, first compound 0.00949 µM); 0.14% (second compound 3.16 µM, first compound 0.03 µM); 0.82% (second compound 3.16 µM, first compound 0.0949 µM); 0.77% (second compound 3.16 µM, first compound 0.3 µM). The viability, T/C was 0.24% (second compound 10 µM, first compound 0.000949 µM); 2.1% (second compound 10 µM, first compound 0.003 µM); 0.19% (second compound 10 µM, first compound 0.00949 µM); 0.23% (second compound 10 µM, first compound 0.03 µM); 0.24% (second compound 10 µM, first compound 0.0949 µM); 0.21% (second compound 10 µM, first compound 0.3 µM).

`COc1c(OCCCN2CCOCC2)ccc2c3n(c(=NC(=O)c4cnc(N)nc4)nc12)CCN3`: the viability, T/C was 115% and 94.4% (compound 0.00316 µM); 90.3% and 90.5% (compound 0.01 µM); 74.8% and 77.7% (compound 0.0316 µM); 46% and 41.9% (compound 0.1 µM); 16.8% and 13.3% (compound 0.316 µM); 7.93% and 6.55% (compound 1 µM). Under “curve of compound”, the half-maximal inhibitory concentration (IC50) was 0.0783 µM and 0.0767 µM.

With `NC(=O)C(=Cn1cnc(-c2cc(C(F)(F)F)cc(C(F)(F)F)c2)n1)c1cncnc1`, the viability, T/C runs as follows: (compound 0.00949 µM) 102% and 105%; (compound 0.03 µM) 86.1% and 84.8%; (compound 0.0949 µM) 24.7% and 19.3%; (compound 0.3 µM) 9.87% and 6.77%; (compound 0.949 µM) 3.5% and 4.03%; (compound 3 µM) 1.5% and 1.39%. The IC50 (curve of compound) is 0.0593 µM and 0.0554 µM.
